Reference: US9546157B2, “Asymmetric piperidinyl-substituted ureas as medicines” (Helsinn Healthcare SA, priority 2014, dated 2017)
“Also recorded” adds a separate entry of the source.

Tests used:
[1] = test system: female Sprague-Dawley rats; test: Binge eating model in non-estrous female rats (food restriction + stress, HPF intake); format: in vivo, rat; conditions: for 2-h chow food intake during binge eating test / 24-h chow food intake after binge eating test: acute administration (compounds 3 and 30 mg/kg, Topiramate 60 mg/kg)
Procedure: In this Example, the therapeutic potential of compounds were tested for their ability to inhibit binge eating. The animal model used was developed to explore the combination of food restriction and stress. […] Considering the reliability and the robustness of this model, it was adopted to test the inventive compounds.
A total of N=117, 52-day-old female Sprague-Dawley rats (175-200 g) were used. Rats were acclimated in individual cages with metallic walls; the floor and the front wall made of metallic grid. The dimensions of the cage floor being 30 cm×30 cm; the cage is 30 cm high. A front door (30 cm×20 cm) made of metallic grid was positioned in the anterior wall of the cage to gain access to the inside of the cage; the remaining part of the front wall was equipped with a drinking burette.
Rats were kept in a room at constant temperature (20-22° C.) and humidity (45-55%) under a 12-h light/dark cycle (lights on at 08:00 am) with ad lib chow and water. All procedures were conducted in adherence to the European Community Directive for Care and Use of Laboratory Animals.
Rats were offered food pellets, 4RF18, Mucedola, Settimo Milanese, Italy (2.6 kcal/g). The Highly Palatable Food (HPF) was prepared by mixing:
Rats were exposed to 3 consecutive 8-day cycles followed by the final test on day 25:
a) the control group (NR+NS) had chow ad libitum for 4 days, on days 5-6 it received chow+HPF for 2 h; on days 7-8 it had chow ad libitum; on day 25 it was not exposed to stress;
b) the second group (R+S) had chow restricted to 66% of the normal intake for 4 days, was offered chow and HPF (2 h) on days 5-6 and only chow on days 7-8; on day 25 it […].
Body weights and food intake were recorded daily. Food intake is expressed as mean kilocalories per kilogram ingested±SEM.
Therefore, immediately after the test on day 25, vaginal smears were collected and analyzed under microscope to assess the ovarian phase, and data from rats in the estrous phase were not included in the statistical analysis. Vaginal smears were analyzed by an experienced experimenter blind to treatment conditions.
For 15 min, the container (China coffee cup) containing HPF is placed outside the cage; the container handle is hooked to the top wire wall of the cage in the hollow part where food pellets are usually offered. In these conditions, the animal is able to see the cup in which it received HPF on days 5, 6, 13, and 14 of the first two cycles, is able to see in part the HPF itself, and is able to smell its odour. In this 15-min period, the rat engages in repeated movements of the forepaws, head, and trunk aimed at obtaining the HPF, but it is not able to reach it. Rats undergo the stressful procedure between 10.00 and 12.00 am. After 15 min, the cup is placed inside the cage of the rats in the stress group (R+S), so that the HPF became accessible to the rat.
100 mg of each compound (H0816, H0860, H0847 and H0900) was accurately weighed and suspended in 13.33 ml of 0.5% carboxymethyl cellulose sodium salt (CMC, Sigma-Aldrich Cat. C4888, lot 120M0216V) solution. The lower dose solution was prepared by dilution of 30 mg/ml suspension with 0.5% CMC solution. Suspensions were prepared freshly on test day. Vehicle was composed by a solution of 0.5% carboxymethyl cellulose sodium salt and was prepared by dissolving 1 g of CMC in 200 ml of distilled water. 180 mg of Topiramate was accurately weighed and suspended in 12 ml of 0.5% CMC solution. Compounds (vehicle and active principles) were administered by gavage in a volume of 4 ml/kg of body weight one hour before access to HPF.
All data are expressed as the mean±s.e.m. and each value reflects the mean number of animals per group as described in the legends. For data evaluation, the analysis of variance (ANOVA) was used followed by post-hoc (Bonferroni's) test when appropriate. Statistical significance was set at P<0.05. The Software used for the Graphs was Origin 7.0. […]

[2] = Metabolic Stability (M = Mouse); format: in vitro ADME
[3] = first test, 30 mg/kg by gavage 1 h before access to HPF, vs R+S vehicle
[4] = first test, 3 and 30 mg/kg by gavage
[5] = first test, doses of 3 and 30 mg/kg by gavage, acute administration
[6] = second test, H0816 3, 10 and 30 mg/kg, Topiramate 60 mg/kg

| animals' gross behaviour during the 2-h test [1, 4] | animals' gross behaviour during the 2-h test ([1]; second test, 3, 10 and 30 mg/kg by gavage) | Metabolic Stability M [2] | SMILES | HPF intake (binge eating) in R+S rats, post-hoc [1, 3] | 2-h chow food intake during binge eating test ([1]; first test) | 24-h chow food intake after binge eating test ([1]; first test) | 2-h HPF intake (binge eating) in R+S rats, overall (ANOVA) [1, 5] | HPF intake (binge eating) in R+S rats, post-hoc ([1]; second test, 10 mg/kg by gavage 1 h before access to HPF) | HPF intake (binge eating) in R+S rats, post-hoc ([1]; second test, 30 mg/kg by gavage 1 h before access to HPF) | 2-h chow intake [1, 6] | 24-h chow intake [1, 6] | 2-h HPF intake (binge eating) in R+S rats, overall (ANOVA) ([1]; second test, doses of 3, 10 and 30 mg/kg by gavage) | HPF intake (binge eating) in R+S rats, post-hoc ([1]; first test, 3 mg/kg by gavage 1 h before access to HPF, vs R+S vehicle) |
| --- | --- | --- | --- | --- | --- | --- | --- | --- | --- | --- | --- | --- | --- |
| did not affect animals' gross behaviour | did not affect animals' gross behaviour | – | C[C@H](NC(=O)N(C)C1CCN(C)CC1)c1ccc(-c2cnccn2)c(Cl)c1Cl [Compound H0816, (S)-3-(1-(2,3-dichloro-4-(pyrazin-2-yl)phenyl)ethyl)-1-methyl-1-(1-methylpiperidin-4-yl)urea] | statistically significant (P<0.05) at 15 min time point | did not modify 2-h chow intake | did not modify 24-h chow intake | reduced binge eating episodes; also recorded: significant difference; also recorded: significantly reduced BE behaviour | statistically significant (P<0.05) at 15 min time point | completely blocked (P<0.01) the BE episode at 15 min | did not modify | did not modify | significant difference; also recorded: confirmed, dose dependently, its selective inhibitory effect on BE | – |
| – | – | High H High M | CC[C@H](NC(=O)N(C)C1CCN(C)CC1)c1ccc(-c2cnccn2)c(Cl)c1Cl [Compound H0860, (S)-3-(1-(2,3-dichloro-4-(pyrazin-2-yl)phenyl)propyl)-1-methyl-1-(1-methylpiperidin-4-yl)urea] | – | significantly increased 2-h chow food intake | significantly increased 24-h chow food intake | not statistically significant; also recorded: did not significantly reduce HPF intake; also recorded: did not affect HPF intake | – | – | – | – | – | – |
| did not affect animals' gross behaviour | – | High | CN1CCC(N(C)C(=O)N[C@H](c2ccc(-c3cnccn3)c(Cl)c2Cl)C(F)(F)F)CC1 [Compound H0900, (R)-3-(1-(2,3-dichloro-4-(pyrazin-2-yl)phenyl)-2,2,2-trifluoroethyl)-1-methyl-1-(1-methylpiperidin-4-yl)urea] | statistically significant (P<0.01) at all time points | did not modify 2-h chow intake | did not modify 24-h chow intake | reduced binge eating episodes; also recorded: significant difference; also recorded: significantly reduced BE behaviour | – | – | – | – | – | – |

| SMILES | animals' gross behaviour during the 2-h test [1, 4] | animals' gross behaviour during the 2-h test ([1]; second test, 3, 10 and 30 mg/kg by gavage) | Metabolic Stability M [2] | HPF intake (binge eating) in R+S rats, post-hoc [1, 3] | 2-h chow food intake during binge eating test ([1]; first test) | 24-h chow food intake after binge eating test ([1]; first test) | 2-h HPF intake (binge eating) in R+S rats, overall (ANOVA) [1, 5] | HPF intake (binge eating) in R+S rats, post-hoc ([1]; second test, 10 mg/kg by gavage 1 h before access to HPF) | HPF intake (binge eating) in R+S rats, post-hoc ([1]; second test, 30 mg/kg by gavage 1 h before access to HPF) | 2-h chow intake [1, 6] | 24-h chow intake [1, 6] | 2-h HPF intake (binge eating) in R+S rats, overall (ANOVA) ([1]; second test, doses of 3, 10 and 30 mg/kg by gavage) | HPF intake (binge eating) in R+S rats, post-hoc ([1]; first test, 3 mg/kg by gavage 1 h before access to HPF, vs R+S vehicle) |
| --- | --- | --- | --- | --- | --- | --- | --- | --- | --- | --- | --- | --- | --- |
| C[C@H](NC(=O)N(C)C1CCN(C)CC1)c1ccc(-c2cncc(F)n2)c(Cl)c1Cl [Compound H0847, (S)-3-(1-(2,3-dichloro-4-(6-fluoropyrazin-2-yl)phenyl)ethyl)-1-methyl-1-(1-methylpiperidin-4-yl)urea] | mild sedation | – | High H High M | significantly (P<0.01) reduced HPF intake at all time points | significantly increased 2-h chow food intake | significantly increased 24-h chow food intake | reduced binge eating episodes; also recorded: significant difference; also recorded: significantly reduced BE behaviour | – | – | – | – | – | statistically significant at 15, 30 and 60 min after HPF access |
